# Patent US10835500B2, “Medicament for accelerated wound healing” (Symrise AG, priority 2014, dated 2020)
# Experiments:
# Assay type in all cases: cell-based, human
# HaCaT cells [1] = experiment: Morphology and propidium iodide staining after 5-day stimulation, HaCaT cells; conditions: 5-day incubation with 500 μM
# Protocol: (§1) In order to obtain initial data on possible physiological effects caused by the activation of OR2AT4, HaCaT cells and primary keratinocytes were stimulated for five days with Sandalore®. […] A lethal effect of the odorant can therefore be ruled out (FIG. 16a).
# (§2) Effect of Sandalore® long-term stimulation on morphology, growth, and migration processes in keratinocytes. A) Phase contrast image and PI stains of HaCaT cells and primary keratinocytes after stimulation with Sandalore® (500 μM) or 0.1% DMSO (control) for five days. On positive PI staining, the cell nuclei are stained red. Scale: 100 μm. B) Evaluation of the proliferation assay carried out with the CyQuant Cell Proliferation Kit on HaCaT cells after 5-day stimulation with 500 μM of Sandalore® or 0.1% DMSO (control). For the RNA interference experiments, the cells were transfected with siRNA or scRNA on the day before Sandalore® stimulation. Shown is the mean cell count including standard error relative to untreated cells. Mann-Whitney U test; n=3 experiments. *: p<0.05; **: p<0.01. S: Sandalore. C) Agarose assay for determination of migration of HaCaT cells. Top: Transmitted light images of HaCaT cells that have migrated in the direction of Sandalore® (500 μM) or 0.1% DMSO. […] The longest path traversed by the cells and the overgrown area were measured and compared to the control (0.1% DMSO). […]
# primary keratinocytes = experiment: Morphology and propidium iodide staining after 5-day stimulation, primary keratinocytes; conditions: 5-day incubation with 500 μM
# Protocol: as §1, §2
# protein kinase Akt = experiment: Western Blot, phosphorylation of protein kinase Akt in HaCaT cells
# Protocol: In addition to the phosphorylated kinases already detected, the phosphorylation of protein kinase Akt was investigated. For this purpose, HaCaT cells were stimulated with Sandalore® for 0, 5, 15 and 30 min, and phosphorylation was investigated by means of Western Blot assays and special antibodies to the unphosphorylated or phosphorylated form of the Akt-protein.
# Investigation of interleukin secretion and phosphorylation of Akt protein kinase after Sandalore® stimulation. A) Investigation of the regulation of interleukins in HaCaT cells by means of qRT-PCR after stimulation with Sandalore® (500 μM) for 6 h and 24 h. 0.1% DMSO was used as a control. GAPDH was used as a reference gene, and the relative expression between untreated and stimulated cells was determined. Mean values including standard error. n=3 experiments. B) ELISA assay for the detection of interleukins in the supernatant of HaCaT cells stimulated for 24 h with Sandalore® (500 μM). 0.1% DMSO was used as a control. The measured optical density of the treated cells at 450 nm was expressed relative to the background. Supernatants of three independent stimulations were used. Mean values including standard error. Mann-Whitney U test. *: p<0.05. C) Western Blot for investigating phosphorylation of Akt protein kinase by HaCaT cells stimulated for 0, 5, 15, and 30 min with Sandalore® (500 μM). […]
# HaCaT cells [2] = experiment: Agarose migration assay with HaCaT cells; conditions: 500 μM versus 0.1% DMSO, five days
# Protocol: For this reason, an agarose migration assay was conducted in order to determine whether the increased cell growth is accompanied by increased chemotactic behavior.
# Effect of Sandalore® long-term stimulation on morphology, growth, and migration processes in keratinocytes. A) Phase contrast image and PI stains of HaCaT cells and primary keratinocytes after stimulation with Sandalore® (500 μM) or 0.1% DMSO (control) for five days. On positive PI staining, the cell nuclei are stained red. Scale: 100 μm. B) Evaluation of the proliferation assay carried out with the CyQuant Cell Proliferation Kit on HaCaT cells after 5-day stimulation with 500 μM of Sandalore® or 0.1% DMSO (control). For the RNA interference experiments, the cells were transfected with siRNA or scRNA on the day before Sandalore® stimulation. Shown is the mean cell count including standard error relative to untreated cells. Mann-Whitney U test; n=3 experiments. *: p<0.05; **: p<0.01. S: Sandalore. C) Agarose assay for determination of migration of HaCaT cells. Top: Transmitted light images of HaCaT cells that have migrated in the direction of Sandalore® (500 μM) or 0.1% DMSO. The growth margin of the cells was surrounded in black. Scale: 250 μm. Bottom: Evaluation of the proliferation assay. The longest path traversed by the cells and the overgrown area were measured and compared to the control (0.1% DMSO). Paired two-sided T test. […]
# IL-1α = experiment: Quantitative real-time PCR of IL-1α in HaCaT cells
# Protocol: (§3) In order to investigate interleukin secretion, quantitative real-time PCR was first carried out. For this purpose, RNA from HaCaT cells was used that had previously been stimulated for 6 or 24 hours with Sandalore®. Detection was carried out with specific primers of various interleukins (IL-1α, IL-1β, IL-6, IL-8) and tumor necrosis factor (TNF▪). […] In order to corroborate the results, an ELISA assay was carried out, in which the secreted interleukins in the supernatant of the cells can be detected by means of an immunological reaction. By means of the assay used, secretion of the interleukins (IL-1α, IL-1β, IL-2, IL-4, IL-6, IL-8, IL-10, IL-12, and IL-17α), TNFα, γ-interferon (IFNγ), and granulocyte macrophage colony-stimulating factor (GMCSF) was investigated.
# (§4) Investigation of interleukin secretion and phosphorylation of Akt protein kinase after Sandalore® stimulation. A) Investigation of the regulation of interleukins in HaCaT cells by means of qRT-PCR after stimulation with Sandalore® (500 μM) for 6 h and 24 h. 0.1% DMSO was used as a control. GAPDH was used as a reference gene, and the relative expression between untreated and stimulated cells was determined. Mean values including standard error. n=3 experiments. […] The measured optical density of the treated cells at 450 nm was expressed relative to the background. […]
# IL-8 = experiment: ELISA of secreted IL-8 in supernatant of HaCaT cells; conditions: 24-hour stimulation, 500 μM
# Protocol: as §3, §4
# IL-1β = experiment: Quantitative real-time PCR of IL-1β in HaCaT cells; conditions: after 24 hours, 500 μM
# Protocol: as §3, §4
structure (smiles),measurement,setting,value
CC1=CCC(CCC(C)C(C)O)C1(C)C (stereo not drawn) [Sandalore®],morphological changes or PI staining (lethal effect),HaCaT cells [1],neither the HaCaT cells nor the keratinocytes showed morphological changes or PI staining
same,morphological changes or PI staining (lethal effect),primary keratinocytes,neither the HaCaT cells nor the keratinocytes showed morphological changes or PI staining
same,time until Akt kinase was phosphorylated,"protein kinase Akt; 500 μM, 0, 5, 15 and 30 min",≤ 5 min
same,activation of the protein kinase Akt,protein kinase Akt; summary statement,activated
same,chemotactic migration of the HaCaT cells,HaCaT cells [2],significant chemotactic migration
same,increase of expression of IL-1α relative to the control (0.1% DMSO),"IL-1α; after 24 hours, 500 μM","approx. 10,000%"
same,expression of IL-1α,IL-1α; summary statement,increased
same,secretion of IL-8 relative to the control (0.1% DMSO),IL-8,not significantly higher than the control
same,increase of expression of IL-1β relative to the control (0.1% DMSO),IL-1β,approx. 1700%
